These results are taken from ChEMBL document CHEMBL1139461, “Synthesis and characterization of the novel fluorescent prolyl oligopeptidase inhibitor 4-fluoresceinthiocarbamoyl-6-aminocaproyl-L-prolyl-2(S)-(hydroxyacetyl)pyrrolidine” (J Med Chem, 2005).

For this experiment, the target named is Prolyl endopeptidase (Sus scrofa, UniProt P23687). The experiment can be described thus: Inhibition of pig brain POP.

pIC50: −log10 of the molar value.

Prolyl endopeptidase, sequence (P23687 whole entry): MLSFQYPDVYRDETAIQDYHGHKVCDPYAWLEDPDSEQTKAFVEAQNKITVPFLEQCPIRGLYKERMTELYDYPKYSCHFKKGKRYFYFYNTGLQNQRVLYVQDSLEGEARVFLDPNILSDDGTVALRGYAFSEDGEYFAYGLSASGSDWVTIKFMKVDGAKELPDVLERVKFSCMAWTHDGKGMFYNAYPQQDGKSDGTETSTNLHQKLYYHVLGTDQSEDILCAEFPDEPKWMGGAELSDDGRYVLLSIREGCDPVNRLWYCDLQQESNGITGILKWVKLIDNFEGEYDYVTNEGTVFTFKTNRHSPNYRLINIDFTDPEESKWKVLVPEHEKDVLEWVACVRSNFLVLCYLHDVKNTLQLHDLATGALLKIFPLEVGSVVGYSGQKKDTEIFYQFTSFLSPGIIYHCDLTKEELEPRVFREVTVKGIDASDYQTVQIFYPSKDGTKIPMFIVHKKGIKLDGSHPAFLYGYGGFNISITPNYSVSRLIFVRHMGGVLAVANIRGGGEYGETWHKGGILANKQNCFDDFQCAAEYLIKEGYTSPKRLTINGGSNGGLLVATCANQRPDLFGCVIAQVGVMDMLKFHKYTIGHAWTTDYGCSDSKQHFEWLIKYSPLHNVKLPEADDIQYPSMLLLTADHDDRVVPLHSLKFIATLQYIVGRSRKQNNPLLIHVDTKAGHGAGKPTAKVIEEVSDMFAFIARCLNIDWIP

As usually defined, the pIC50 is −log10 of the IC50, conventionally taken in molar units. A higher pIC50 goes with a small IC50. On to `O=C1OC2(c3ccc(O)cc3Oc3cc(O)ccc32)c2ccc(NC(=S)NCC(=O)N3CCC[C@H]3C(=O)N3CCC[C@H]3C(=O)CO)cc21`, for which the pIC50 is 6.74.

`O=C1OC2(c3ccc(O)cc3Oc3cc(O)ccc32)c2ccc(NC(=S)NCCCCCC(=O)N3CCC[C@H]3C(=O)N3CCC[C@H]3C(=O)CO)cc21` showed a pIC50 of 9.08. Against the preceding molecule, the pIC50 is 2.34 log units higher.
